In patent publication US9624167B2, “N-(4-hydroxy-4-methyl-cyclohexyl)-4-phenyl-benzenesulfonamides and N-(4-hydroxy-4-methyl-cyclohexyl)-4-(2-pyridyl)benzenesulfonamides and their therapeutic use” (PIMCO 2664 LIMITED, priority 2013, dated 2017):

What was measured:
Format in all cases: cell-based
[1] = system: GADD45a-GFP reporter in TK6 human lymphoblastoid cell line; test: GreenScreen HC genotoxicity (GADD45a-GFP reporter)
Excerpt: (§1) GreenScreen HC is a mammalian cell-based assay for measuring the genotoxicity and cytotoxicity of chemical compounds and mixtures.
The term genotoxic is used to describe substances that are capable of causing damage to genetic material (DNA) within a cell, which may ultimately have mutagenic, carcinogenic or teratogenic effects in humans.
The GreenScreen assay reports genotoxic stress as an increase in fluorescence from a genetically modified derivative of the p53-competent TK6 human lymphoblastoid cell line. In the modified cells, regulatory DNA sequences which promote the transcription of the GADD45a gene control the expression of Green Fluorescent Protein (GFP). GADD45a has a central role in genomic integrity, and genotoxic stress induces its transcription. Exposure to a genotoxic compound therefore increases the expression of GFP, which is observed as an increase in fluorescence and which is monitored by fluorescent detection using a plate reader or flow cytometer. In the GreenScreen HC assay fluorescence is normalised to the optical absorbance measurement to correct for variation in cell yield caused by loss of cell viability or cytotoxicity. The statistically defined threshold for a positive result in the GreenScreen HC assay is 1.5, i.e., 50% induction over and above the baseline for the vehicle-treated control.
(§2) A dilution series of each test compound is generated in parallel in a 96-well, black microplate with an optically clear base. A standard genotoxic compound (methyl methanesulfonate, MMS) is added as an intra-plate quality control check. The plates are analysed at 24 hour and 48 hour time points using a microplate reader, which provides measurements of light absorbance and fluorescence for cells and solutions in the microplates wells.
(§3) In addition to measurements of cell viability and genotoxicity described above, the GreenScreen assay incorporates an assessment of the effects of metabolic activation in the assay, the “GreenScreen HC S9 assay”. To accomplish this, the cells are incubated both in the presence of and absence of the post-mitochondrial supernatant liver extract (known as “S9”). S9 is routinely used in genetic toxicology to supplement the test cells with mammalian phase I metabolism. To assess metabolic activation, compounds are incubated with the TK6 strain in the presence of 1% v/v S9 fraction mix for 3 hours with a subsequent 45 hour recovery time. After the recovery period, the GFP fluorescence signal and cell viability (assessed by propidium iodide uptake) are measured using a flow cytometer. Cyclophosphamide, a commonly used control in genotoxicity studies utilising metabolic activation, is used as the positive control in the assay. In the GreenScreen HC S9 assay, genotoxicity is evaluated by induction in GFP expression quantified using the mean sample fluorescence and cytotoxicity using the propidium iodide uptake assay described above. The statistically defined threshold for a positive genotoxicity result is 1.3, i.e. 30% induction over and above the baseline for the vehicle-treated control and the result is reported as positive or negative. Cytotoxic compounds are those that show an observed decrease in relative population survival below a significance threshold set at 90% compared to vehicle-treated control, at one or more test concentrations.
(§4) Stably transfected reporter cell lines were derived from the p53-competent human lymphoblastoid TK6 cell line. The reporter cell line carries an episomally replicating plasmid bearing the upstream promoter region and other regulatory sequences of the human GADD45a gene linked to a human optimised Green Fluorescent Protein (GFP) gene. The control cell line carries an identical plasmid except for the removal of 4 base pairs at the start of the EGFP gene, such that GFP is not produced. […]

J774 macrophages = test: Resazurin Macrophage J774 Viability Assay; conditions: Mus musculus, 12 point concentration range 10 μM to 0.5 nM, n = 4 replicates, mean of 3 independent experiments, 72 hour incubation, read-out: IC50 (2)
[2] = system: TK6 human lymphoblastoid cell line; test: GreenScreen HC cytotoxicity (propidium iodide uptake)
Description: as §1
Cytotoxicity is measured in the GreenScreen assay alongside genotoxicity and the results of the cytotoxicity assessment are used to normalise the genotoxicity measurements as described above.
In the GreenScreen HC assay, cell viability is assessed using a propidium iodide uptake assay. Propidium iodide is an intercalating agent and a fluorescent molecule that can be used to stain cells. It is commonly used to quantitatively assess DNA content to evaluate cell viability or DNA content in cell cycle analysis and can be used to differentiate necrotic, apoptotic and normal cells (see, e.g., Dengler et al., 1995, Anticancer Drugs, Vol. 6, No. 4, pp. 522-532). Exposure to a cytotoxic compound increases the uptake of propidium iodide, which is monitored by optical absorbance and is proportional to […]. Cytotoxic compounds are those that show an observed decrease in relative population survival below a significance threshold set at 90% compared to vehicle-treated control, at one or more test concentrations.
as §2, §3
as §4, with “produced. Both plasmids also carry a gene conferring resistance to hygromycin B to the cell line, allowing continued selection for plasmid presence (200 μg/mL hygromycin B; Invitrogen Corporation, Carlsbad, Calif.).” for “produced.”

[3] = GreenScreen HC, positive or negative
[4] = lowest effective concentration for loss of cell viability

SMILES	Genotoxicity [1, 3]	IC50 (J774 macrophages) [nM]	Cytotoxicity, LEC, 48 h, −S9 ([2]; absence of S9 fraction) [µM]	Cytotoxicity, LEC, 48 h, +S9 ([2]; presence of S9 fraction) [µM]	Cytotoxicity, LEC, 24 h [2, 4] [µM]	other results
C[C@]1(O)CC[C@H](NS(=O)(=O)c2ccc(-c3ncc(F)cc3F)c(F)c2)CC1 [HMC-N-01-A, 4-(3,5-Difluoropyridin-2-yl)-3-fluoro-N-((1r,4r)-4-hydroxy-4-methylcyclohexyl)benzenesulfonamide]	Negative	2660	0.12	60	0.94	
C[C@]1(O)CC[C@@H](NS(=O)(=O)c2ccc(-c3ccc(F)cc3F)c(F)c2)CC1 [HMC-C-04-B, 2,2′,4′-Trifluoro-N-((1s,4s)-4-hydroxy-4-methylcyclohexyl)-[1,1′-biphenyl]-4-sulfonamide]		60				
C[C@]1(O)CC[C@H](NS(=O)(=O)c2ccc(-c3c(F)cc(F)cc3F)cc2)CC1 [HMC-C-03-A, 2′,4′,6′-Trifluoro-N-((1r,4r)-4-hydroxy-4-methylcyclohexyl)biphenyl-4-sulfonamide]	Negative	410	0.06	15	0.24	
C[C@]1(O)CC[C@@H](NS(=O)(=O)c2ccc(-c3ncc(F)cc3F)c(F)c2)CC1 [HMC-N-01-B, 4-(3,5-Difluoropyridin-2-yl)-3-fluoro-N-((1s,4s)-4-hydroxy-4-methylcyclohexyl)benzenesulfonamide]	Negative	140	0.05	5.85	0.01	
C[C@]1(O)CC[C@H](NS(=O)(=O)c2ccc(-c3ncc(Cl)cc3Cl)c(F)c2)CC1 [HMC-N-04-A, 4-(3,5-Dichloropyridin-2-yl)-3-fluoro-N-((1r,4r)-4-hydroxy-4-methylcyclohexyl)benzenesulfonamide]	Negative		0.12	30	0.47	
C[C@]1(O)CC[C@H](NS(=O)(=O)c2ccc(-c3ccc(F)cc3F)cc2)CC1 [ABD900, reference compound]	Negative		0.07	74.1	0.29	
Cc1cc(S(=O)(=O)NC2CCC(C)(O)CC2)ccc1-c1ccc(F)cc1F (single isomer, unassigned) [REF001, reference compound]	Positive	50	0.039	0.63	0.039	
C[C@]1(O)CC[C@H](NS(=O)(=O)c2ccc(-c3ncc(F)cc3F)cc2)CC1 [HMC-N-02-A, 4-(3,5-Difluoropyridin-2-yl)-N-((1r,4r)-4-hydroxy-4-methylcyclohexyl)benzenesulfonamide]	Negative	4590	0.47	120	0.94	
C[C@]1(O)CC[C@@H](NS(=O)(=O)c2ccc(-c3ccc(F)cc3F)cc2)CC1 [ABD899, reference compound]						Genotoxicity ([1]; lab scale batch, 1.3 mM to 0.3 pM): Positive; Genotoxicity ([1]; mid scale batch, 164 μM to 0.003 μM): Negative; Cytotoxicity, LEC, 24 h ([2]; lab scale batch tested in the range 1.3 mM to 0.3 pM): <0.001 µM; Cytotoxicity, LEC, 24 h ([2]; mid scale batch tested in the range 164 μM to 0.003 μM): 0.64 µM; Cytotoxicity, LEC, 48 h, +S9 ([2]; +S9, lab scale batch, 1.3 mM to 0.3 pM): 0.32 µM; Cytotoxicity, LEC, 48 h, +S9 ([2]; +S9, mid scale batch, 164 μM to 0.003 μM): 81.9 µM; Cytotoxicity, LEC, 48 h, −S9 ([2]; −S9, lab scale batch, 1.3 mM to 0.3 pM): <0.001 µM; Cytotoxicity, LEC, 48 h, −S9 ([2]; −S9, mid scale batch, 164 μM to 0.003 μM): 0.08 µM
C[C@]1(O)CC[C@@H](NS(=O)(=O)c2ccc(-c3ncc(F)cc3F)cc2)CC1 [HMC-N-02-B, 4-(3,5-Difluoropyridin-2-yl)-N-((1s,4s)-4-hydroxy-4-methylcyclohexyl)benzenesulfonamide]	Negative	360	0.01	10.2	0.04	
C[C@]1(O)CC[C@H](NS(=O)(=O)c2ccc(-c3ccc(F)cc3C(F)(F)F)cc2)CC1 [HMC-C-02-A, 4′-Fluoro-N-((1r,4r)-4-hydroxy-4-methylcyclohexyl)-2′-(trifluoromethyl)biphenyl-4-sulfonamide]	Negative	14700	60	120	>1000	
C[C@]1(O)CC[C@@H](NS(=O)(=O)c2ccc(-c3ccc(F)cc3C(F)(F)F)cc2)CC1 [HMC-C-02-B, 4′-Fluoro-N-((1s,4s)-4-hydroxy-4-methylcyclohexyl)-2′-(trifluoromethyl)-[1,1′-biphenyl]-4-sulfonamide]		1740				
C[C@]1(O)CC[C@H](NS(=O)(=O)c2ccc(-c3ccc(Cl)cc3C#N)cc2)CC1 [HMC-C-01-A, 4′-Chloro-2′-cyano-N-((1r,4r)-4-hydroxy-4-methylcyclohexyl)biphenyl-4-sulfonamide]	Negative	1890	0.12	60	0.47	
C[C@]1(O)CC[C@@H](NS(=O)(=O)c2ccc(-c3ccc(Cl)cc3C#N)cc2)CC1 [HMC-C-01-B, 4′-Chloro-2′-cyano-N-((1s,4s)-4-hydroxy-4-methylcyclohexyl)-[1,1′-biphenyl]-4-sulfonamide]	Negative	160	0.005	4.82	0.08	
C[C@]1(O)CC[C@@H](NS(=O)(=O)c2ccc(-c3ncc(Cl)cc3Cl)cc2)CC1 [HMC-N-03-B, 4-(3,5-Dichloropyridin-2-yl)-N-((1s,4s)-4-hydroxy-4-methylcyclohexyl)benzenesulfonamide]		80				
C[C@]1(O)CC[C@H](NS(=O)(=O)c2ccc(-c3ccc(F)cc3F)c(F)c2)CC1 [HMC-C-04-A, 2,2′,4′-Trifluoro-N-((1r,4r)-4-hydroxy-4-methylcyclohexyl)-[1,1′-biphenyl]-4-sulfonamide]		500				
O=S(=O)(N[C@H]1CC[C@H](O)CC1)c1ccc(-c2ncc(Cl)cc2Cl)cc1 [ABD836, reference compound]	Positive		0.01	40	0.04	
Cc1cc(S(=O)(=O)N[C@H]2CC[C@H](O)CC2)ccc1-c1ccc(F)cc1F [ABD735]	Negative		0.31	5	0.31	
